Test results reported in patent US20230278972A1, “SUBSTITUTED HALOALKYL SULFONANILIDE HERBICIDES” (FMC Corporation, priority 2020, published 2023).

Assays:
Assay type in all cases: in vivo
[1] = test system: blackgrass (Alopecurus myosuroides); assay: Test A postemergence, blackgrass; conditions: Postemergence, 0 to 100 scale (0 no effect, 100 complete control); for Plant response rating, Blackgrass: 125 g ai/ha; for Blackgrass plant response rating: 500 g ai/ha, visual injury vs untreated controls after approx. 10 days
How it was run: (§1)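 Compounds in non-phytotoxic solvent with surfactant. Soil: loam/sand. Preemergence via directed soil spray after seeding; postemergence on seedlings 2–10 cm, one- to two-leaf.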

[2] = test system: barnyardgrass (Echinochloa crus-galli); assay: Test A postemergence, barnyardgrass; conditions: Postemergence, 0 to 100 scale (0 no effect, 100 complete control); for Plant response rating, Barnyardgrass: 125 g ai/ha; for Barnyardgrass plant response rating: 500 g ai/ha, visual injury vs untreated controls after approx. 10 days
How it was run: (§2)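 Pots: loam soil/sand blend. Pre: directed soil spray at planting. Post: plants 2–10 cm, 1–2 leaf stage. Formulation: non-phytotoxic solvent + surfactant.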

[3] = test system: Foxtail, Giant (giant foxtail, Setaria faberi); assay: Test A preemergence, Foxtail, Giant; conditions: Preemergence, 0 to 100 scale (0 no effect, 100 complete control)
How it was run: as §1

[4] = test system: wheat (Triticum aestivum); assay: Test A postemergence, wheat; conditions: Postemergence, 0 to 100 scale (0 no effect, 100 complete control); for Plant response rating, Wheat: 125 g ai/ha; for Wheat plant response rating: 500 g ai/ha, visual injury vs untreated controls after approx. 10 days
How it was run: as §2

[5] = test system: ragweed (common ragweed, Ambrosia artemisiifolia); assay: Test A postemergence, ragweed; conditions: Postemergence, 0 to 100 scale (0 no effect, 100 complete control); for Plant response rating, Ragweed: 125 g ai/ha; for Ragweed plant response rating: 500 g ai/ha, visual injury vs untreated controls after approx. 10 days
How it was run: as §1

corn (Zea mays) = assay: Test A postemergence, corn; conditions: Postemergence, 0 to 100 scale (0 no effect, 100 complete control); for Plant response rating, Corn: 125 g ai/ha; for Corn plant response rating: 500 g ai/ha, visual injury vs untreated controls after approx. 10 days
How it was run: as §1

kochia (Bassia scoparia) [6] = assay: Test A postemergence, kochia; conditions: Postemergence, 0 to 100 scale (0 no effect, 100 complete control); for Plant response rating, Kochia: 125 g ai/ha; for Kochia plant response rating: 500 g ai/ha, visual injury vs untreated controls after approx. 10 days
How it was run: as §1

[7] = test system: pigweed (Amaranthus retroflexus); assay: Test A postemergence, pigweed; conditions: Postemergence, 0 to 100 scale (0 no effect, 100 complete control); for Plant response rating, Pigweed: 125 g ai/ha; for Pigweed plant response rating: 500 g ai/ha, visual injury vs untreated controls after approx. 10 days
How it was run: as §1

kochia (Bassia scoparia) [8] = assay: Test A preemergence, kochia; conditions: Preemergence, 0 to 100 scale (0 no effect, 100 complete control)
How it was run: as §1

[9] = test system: barnyardgrass (Echinochloa crus-galli); assay: Test A preemergence, barnyardgrass; conditions: Preemergence, 0 to 100 scale (0 no effect, 100 complete control)
How it was run: as §1

[10] = test system: ragweed (common ragweed, Ambrosia artemisiifolia); assay: Test A preemergence, ragweed; conditions: Preemergence, 0 to 100 scale (0 no effect, 100 complete control)
How it was run: as §1

[11] = test system: galium (catchweed bedstraw, Galium aparine); assay: Test A postemergence, galium; conditions: Postemergence, 0 to 100 scale (0 no effect, 100 complete control); for Plant response rating, Galium: 125 g ai/ha; for Galium plant response rating: 500 g ai/ha, visual injury vs untreated controls after approx. 10 days
How it was run: as §2

[12] = test system: Foxtail, Giant (giant foxtail, Setaria faberi); assay: Test A postemergence, Foxtail, Giant; conditions: Postemergence, 0 to 100 scale (0 no effect, 100 complete control); for Plant response rating, Foxtail, Giant: 125 g ai/ha; for Foxtail, Giant plant response rating: 500 g ai/ha, visual injury vs untreated controls after approx. 10 days
How it was run: as §1

[13] = test system: pigweed (Amaranthus retroflexus); assay: Test A preemergence, pigweed; conditions: 0 to 100 scale (0 no effect, 100 complete control)
How it was run: as §2

[14] = test system: Ryegrass, Italian (Italian ryegrass, Lolium multiflorum); assay: Test A postemergence, Ryegrass, Italian; conditions: Postemergence, 0 to 100 scale (0 no effect, 100 complete control); for Plant response rating, Ryegrass, Italian: 125 g ai/ha; for Ryegrass, Italian plant response rating: 500 g ai/ha, visual injury vs untreated controls after approx. 10 days
How it was run: as §1

[15] = test system: Ryegrass, Italian (Italian ryegrass, Lolium multiflorum); assay: Test A preemergence, Ryegrass, Italian; conditions: Preemergence, 0 to 100 scale (0 no effect, 100 complete control)
How it was run: as §1

[16] = 125 g ai/ha, visual injury, approx. 10 days

| Structure (SMILES) | Plant response rating, Blackgrass [1] | Blackgrass plant response rating [1] | Plant response rating, Barnyardgrass [2] | Barnyardgrass plant response rating [2] | Plant response rating, Foxtail, Giant [3, 16] | Plant response rating, Foxtail, Giant ([3]; 500 g ai/ha) | Plant response rating, Wheat [4] | Wheat plant response rating [4] | Plant response rating, Ragweed [5] | Ragweed plant response rating [5] | Plant response rating, Corn (corn (Zea mays)) | Corn plant response rating (corn (Zea mays)) | Plant response rating, Kochia (kochia (Bassia scoparia) [6]) | Kochia plant response rating (kochia (Bassia scoparia) [6]) | Plant response rating, Pigweed [7] | Pigweed plant response rating [7] | Plant response rating, Kochia (kochia (Bassia scoparia) [8]; [16]) | Plant response rating, Kochia (kochia (Bassia scoparia) [8]; 500 g ai/ha) | Plant response rating, Barnyardgrass [9, 16] | Plant response rating, Barnyardgrass ([9]; 500 g ai/ha) | further results |
| --- | --- | --- | --- | --- | --- | --- | --- | --- | --- | --- | --- | --- | --- | --- | --- | --- | --- | --- | --- | --- | --- |
| CCN(CC)C(=O)c1cc(NS(=O)(=O)C(F)(F)F)c(C)cc1C [Compound 188] | 0 | 0 | 10 | 70 | 0 | 100 | 40 | 70 | 20 | 70 | 10 | 30 | 0 | 0 | 20 | 80 | 20 | 60 | 60 | 90 | Plant response rating, Ragweed [10, 16]: 40; Plant response rating, Ragweed ([10]; 500 g ai/ha): 50; Plant response rating, Galium [11]: 40; Galium plant response rating [11]: 50; Plant response rating, Foxtail, Giant [12]: 0; Foxtail, Giant plant response rating [12]: 20; Plant response rating, Pigweed [13, 16]: 50; Plant response rating, Pigweed ([13]; 500 g ai/ha): 90; Plant response rating, Ryegrass, Italian [14]: 0; Ryegrass, Italian plant response rating [14]: 40; Plant response rating, Ryegrass, Italian [15, 16]: 50; Plant response rating, Ryegrass, Italian ([15]; 500 g ai/ha): 100 |
| C#CCN(C)C(=O)c1cc(NS(=O)(=O)C(F)(F)F)c(C)cc1C [Compound 189] | 30 | 20 | 80 | 90 | 100 | 100 | 50 | 70 | 90 | 90 | 20 | 80 | 20 | 80 | 60 | 90 | 80 | 100 | 80 | 100 | Plant response rating, Ragweed [10, 16]: 80; Plant response rating, Ragweed ([10]; 500 g ai/ha): 90; Plant response rating, Galium [11]: 90; Galium plant response rating [11]: 90; Plant response rating, Foxtail, Giant [12]: 60; Foxtail, Giant plant response rating [12]: 90; Plant response rating, Pigweed [13, 16]: 90; Plant response rating, Pigweed ([13]; 500 g ai/ha): 100; Plant response rating, Ryegrass, Italian [14]: 80; Ryegrass, Italian plant response rating [14]: 80; Plant response rating, Ryegrass, Italian [15, 16]: 90; Plant response rating, Ryegrass, Italian ([15]; 500 g ai/ha): 100 |
| Cc1c(NS(=O)(=O)C(F)(F)F)cc(C(=O)N2CCCCC2)c(C)c1F [Compound 191] | 0 | 0 | 0 | 30 | 100 | 100 | 30 | 60 | 20 | 60 | 0 | 10 | 0 | 20 | 20 | 70 | 90 | 90 | 100 | 100 | Plant response rating, Ragweed [10, 16]: 60; Plant response rating, Ragweed ([10]; 500 g ai/ha): 100; Plant response rating, Galium [11]: 70; Galium plant response rating [11]: 90; Plant response rating, Foxtail, Giant [12]: 0; Foxtail, Giant plant response rating [12]: 20; Plant response rating, Pigweed [13, 16]: 100; Plant response rating, Pigweed ([13]; 500 g ai/ha): 100; Plant response rating, Ryegrass, Italian [14]: 30; Ryegrass, Italian plant response rating [14]: 60; Plant response rating, Ryegrass, Italian [15, 16]: 70; Plant response rating, Ryegrass, Italian ([15]; 500 g ai/ha): 100 |
| Cc1cc(C)c(C(=O)N2CCC3(CC2)OCCCO3)cc1NS(=O)(=O)C(F)(F)F [Compound 194] | 0 | 0 | 0 | 80 | 80 | 100 | 0 | 60 | 60 | 90 | 0 | 0 | 20 | 40 | 0 | 50 | 40 | 90 | 90 | 90 | Plant response rating, Ragweed [10, 16]: 80; Plant response rating, Ragweed ([10]; 500 g ai/ha): 90; Plant response rating, Galium [11]: 70; Galium plant response rating [11]: 90; Plant response rating, Foxtail, Giant [12]: 10; Foxtail, Giant plant response rating [12]: 80; Plant response rating, Pigweed [13, 16]: 90; Plant response rating, Pigweed ([13]; 500 g ai/ha): 100; Plant response rating, Ryegrass, Italian [14]: 0; Ryegrass, Italian plant response rating [14]: 50; Plant response rating, Ryegrass, Italian [15, 16]: 30; Plant response rating, Ryegrass, Italian ([15]; 500 g ai/ha): 100 |
